Test results: US9963496B2, “Stable glucagon analogues and use for treatment of hypoglycaemia” (Novo Nordisk A/S, priority 2014, dated 2018)
*1 amine or outer side, *2 acyl side, *3 side chain or, on linkers, in order; H or OH if unused. Where a SMILES comes first, the peptide text is derived from it. Side-chain parts run from the residue outwards. [ ]: non-standard residue; d: D form. The star is where a group is joined. γGlu = O=C(O)[C@H](CCC(=O)[*:2])N[*:1]; Desaminohistidyl = O=C(CCc1c[nH]cn1)*; Aib = CC(C)(N)C(=O)O

Target: T1, human glucagon receptor (Homo sapiens, UniProt P47871)
T1 construct: expressed in transfected cells; host or cells: BHK cells, clone BHK hGCGR A3*25; isolated membranes
Assay: Assay (II)(b): glucagon receptor binding, 125I-glucagon displacement on isolated membranes (SPA)
Settings: displacement of 125I-glucagon, membranes of BHK cells with human glucagon receptor, 2 h at 25° C.; read-out: IC50 hGlucagonR
Experimental: (b) Glucagon Receptor Binding
The purpose of this assay was to test the in vitro receptor binding activity of the glucagon derivatives of the invention. The receptor binding activity is a measure of affinity of a derivative for the human glucagon receptor.
The receptor binding of each compound to the human glucagon receptor was measured in a displacement binding assay. In this type of assay a labelled ligand (in this case 125I-glucagon) is bound to the receptor. Each derivative is added in a series of concentrations to isolated membranes containing the human glucagon receptor and displacement of the labelled ligand is monitored. The receptor binding is reported as the concentration at which half of the labelled ligand is displaced from the receptor, the IC50 value.
HME buffer consisted of 25 mM HEPES, 2 mM MgCl2 and 1 mM EDTA, and pH was adjusted to 7.4. Binding buffer consisted of 50 mM HEPES supplemented with 5 mM MgCl2, 1 mM CaCl2, 0.02% Tween 20 and 0.1% Ovalbumin, and pH was adjusted to 7.4.
The cells used in this assay (clone BHK hGCGR A3*25) were BHK cells stable transfected with an expression plasmid containing the cDNA encoding the human glucagon receptor.
The cells were grown at 5% CO2 in DMEM, 10% fetal calf serum, 1% Pen/Strep (Penicillin/Streptomycin) and 1.0 mg/mL of the selection marker G418. To make a membrane preparation the cells were grown to approximately 80% confluence. The cells were washed twice in phosphate-buffered saline and harvested. The cells were pelleted using a brief centrifugation and the cell pellet was kept on ice. The cells were lysed by adding approx. 5 mL HME buffer, mix by pipetting and snap freeze in liquid nitrogen. The cell lysate was quickly thawed and HME buffer added to 10 mL. The cell pellet was homogenised with an ULTRA-THURRAX dispersing instrument for 20-30 seconds. The homogenate was centrifuged at 20,000×G, 4° C. for 10 minutes. The pellet was resuspended (homogenised) in 1-2 mL HME buffer. The protein concentration was determined. The membranes were aliquoted and snap frozen in liquid nitrogen and stored at minus 80° C.
• 1. For the receptor binding assay 50 μl of the assay buffer was added to each well of an assay plate. • 2. Test compounds were serially diluted to give the following concentrations: 8×10 EE-7 M, 8×10 EE-8 M, 8×10 EE-9 M, 8×10 EE-10 M, 8×10 EE-11 M, 8×10 EE-12 M and 8×10 EE-13 M. Twenty-five μl were added to appropriate wells in the assay plate. • 3. Cell membrane aliquots were thawed and diluted to their working concentration. Fifty μl were added to each well in the assay plate. • 4. WGA SPA beads were suspended in assay buffer at 20 mg/mL. The suspension was diluted to 10 mg/mL in assay buffer just prior to addition to the assay plate. Fifty μl were added to each well in the assay plate. • 5. The incubation was started by adding 25 μl of 480 pM solution of [125I]-glucagon to each well of the assay plate. A 25 μl aliquot was reserved for measuring total counts/well. • 6. The assay plate was incubated for 2 h at 25° C. • 7. The assay plate was centrifuged for 10 min at 1500 rpm. • 8. The assay plate was read in a Packard TopCount NXT instrument. Calculations
The data from the TopCount instrument were transferred to GraphPad Prism software. The software averaged the values for the replicates and performed a non-linear regression.

T1 sequence (P47871 26-477): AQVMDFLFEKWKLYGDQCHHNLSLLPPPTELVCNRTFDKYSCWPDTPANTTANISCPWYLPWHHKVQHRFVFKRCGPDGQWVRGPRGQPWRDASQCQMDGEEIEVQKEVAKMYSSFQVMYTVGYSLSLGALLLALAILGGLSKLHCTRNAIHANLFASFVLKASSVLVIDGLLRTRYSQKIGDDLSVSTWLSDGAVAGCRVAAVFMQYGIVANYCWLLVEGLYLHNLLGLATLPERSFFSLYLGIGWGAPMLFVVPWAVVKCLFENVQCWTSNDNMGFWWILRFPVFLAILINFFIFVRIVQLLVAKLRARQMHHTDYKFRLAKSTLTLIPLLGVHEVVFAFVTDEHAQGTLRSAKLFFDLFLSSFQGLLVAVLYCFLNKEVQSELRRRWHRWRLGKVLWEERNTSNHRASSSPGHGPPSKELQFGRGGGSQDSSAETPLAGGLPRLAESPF

Compound | IC50 [pM]
CC(=O)N[C@@H](CCC(=O)N[C@@H](CCC(=O)N[C@@H](CCC(=O)N[C@@H](CCC(=O)NCCCC[C@H](NC(=O)[C@@H](NC(=O)[C@H](Cc1ccccc1)NC(=O)[C@H](CC(=O)O)NC(=O)[C@H](CCC(N)=O)NC(=O)[C@H](C)NC(=O)[C@H](CCCNC(=N)N)NC(=O)[C@H](CCCNC(=N)N)NC(=O)[C@H](CC(C)C)NC(=O)[C@H](CC(=O)O)NC(=O)[C@H](CC(C)C)NC(=O)[C@H](Cc1ccc(O)cc1)NC(=O)[C@H](CCCCN)NC(=O)[C@H](CO)NC(=O)[C@H](Cc1ccc(O)cc1)NC(=O)[C@H](CC(=O)O)NC(=O)[C@H](CO)NC(=O)[C@@H](NC(=O)[C@H](Cc1ccccc1)NC(=O)[C@@H](NC(=O)CNC(=O)[C@H](Cc1c[nH]cn1)NC(=O)C(C)(C)NC(=O)CCc1c[nH]cn1)[C@@H](C)O)[C@@H](C)O)C(C)C)C(=O)N[C@@H](Cc1c[nH]c2ccccc12)C(=O)N[C@@H](CC(C)C)C(=O)N[C@@H](CC(C)C)C(=O)N[C@@H](CO)C(=O)N[C@H](C(=O)O)[C@@H](C)O)C(=O)O)C(=O)O)C(=O)O)C(=O)O [Example 1, N^ϵ24-[(4S)-4-[[(4S)-4-[[(4S)-4-[[(4S)-4-acetamido-4-carboxybutanoyl]amino]-4-carboxybutanoyl]amino]-4-carboxybutanoyl]amino]-4-carboxybutanoyl]-[Imp1, Aib2, His3, Leu16, Lys24, Leu27, Ser28]-Glucagon] (Desaminohistidyl-[Aib]HGTFTSDYSKYLDLRRAQDFVK([γGlu-γGlu-γGlu-γGlu-Ac])WLLST-OH) | 200
CC(=O)N[C@@H](CCC(=O)N[C@@H](CCC(=O)N[C@@H](CCC(=O)N[C@@H](CCC(=O)NCCCC[C@H](NC(=O)[C@H](CC(C)C)NC(=O)[C@H](CC(C)C)NC(=O)[C@H](Cc1c[nH]c2ccccc12)NC(=O)[C@H](C)NC(=O)[C@@H](NC(=O)[C@H](Cc1ccccc1)NC(=O)[C@H](CC(=O)O)NC(=O)[C@H](CCC(N)=O)NC(=O)[C@H](C)NC(=O)[C@H](CCCNC(=N)N)NC(=O)[C@H](CCCNC(=N)N)NC(=O)[C@H](CO)NC(=O)[C@H](CCC(=O)O)NC(=O)[C@H](CC(C)C)NC(=O)[C@H](Cc1ccc(O)cc1)NC(=O)[C@H](CCCCN)NC(=O)[C@H](CO)NC(=O)[C@H](Cc1ccc(O)cc1)NC(=O)[C@H](CC(=O)O)NC(=O)[C@H](CO)NC(=O)[C@@H](NC(=O)[C@H](Cc1ccccc1)NC(=O)[C@@H](NC(=O)CNC(=O)[C@H](Cc1c[nH]cn1)NC(=O)C(C)(C)NC(=O)CCc1c[nH]cn1)[C@@H](C)O)[C@@H](C)O)C(C)C)C(=O)N[C@H](C(=O)O)[C@@H](C)O)C(=O)O)C(=O)O)C(=O)O)C(=O)O [Example 4, N^ϵ28-[(4S)-4-[[(4S)-4-[[(4S)-4-[[(4S)-4-acetamido-4-carboxybutanoyl]amino]-4-carboxybutanoyl]amino]-4-carboxybutanoyl]amino]-4-carboxybutanoyl]-[Imp1, Aib2, His3, Glu15, Ala24, Leu27, Lys28]-Glucagon] (Desaminohistidyl-[Aib]HGTFTSDYSKYLESRRAQDFVAWLLK([γGlu-γGlu-γGlu-γGlu-Ac])T-OH) | 1800
CC(=O)N[C@@H](CCC(=O)N[C@@H](CCC(=O)N[C@@H](CCC(=O)N[C@@H](CCC(=O)NCCCC[C@H](NC(=O)[C@@H](NC(=O)[C@H](Cc1ccccc1)NC(=O)[C@H](CCC(=O)O)NC(=O)[C@H](CCC(N)=O)NC(=O)[C@H](C)NC(=O)[C@H](CCCNC(=N)N)NC(=O)[C@H](CCCNC(=N)N)NC(=O)[C@H](CC(C)C)NC(=O)[C@H](CC(=O)O)NC(=O)[C@H](CC(C)C)NC(=O)[C@H](Cc1ccc(O)cc1)NC(=O)[C@H](CCCCN)NC(=O)[C@H](CO)NC(=O)[C@H](Cc1ccc(O)cc1)NC(=O)[C@H](CC(=O)O)NC(=O)[C@H](CO)NC(=O)[C@@H](NC(=O)[C@H](Cc1ccccc1)NC(=O)[C@@H](NC(=O)CNC(=O)[C@H](Cc1c[nH]cn1)NC(=O)[C@H](CO)NC(=O)CCc1c[nH]cn1)[C@@H](C)O)[C@@H](C)O)C(C)C)C(=O)N[C@@H](Cc1c[nH]c2ccccc12)C(=O)N[C@@H](CC(C)C)C(=O)N[C@@H](CC(C)C)C(=O)N[C@@H](CO)C(=O)N[C@H](C(=O)O)[C@@H](C)O)C(=O)O)C(=O)O)C(=O)O)C(=O)O [Example 8, N^ϵ24-[(4S)-4-[[(4S)-4-[[(4S)-4-[[(4S)-4-acetamido-4-carboxybutanoyl]amino]-4-carboxybutanoyl]amino]-4-carboxybutanoyl]amino]-4-carboxybutanoyl]-[Imp1, His3, Leu16, Glu21, Lys24, Leu27, Ser28]-Glucagon] (Desaminohistidyl-SHGTFTSDYSKYLDLRRAQEFVK([γGlu-γGlu-γGlu-γGlu-Ac])WLLST-OH) | 200
CC(=O)N[C@@H](CCC(=O)N[C@@H](CCC(=O)N[C@@H](CCC(=O)N[C@@H](CCC(=O)NCCCC[C@H](NC(=O)[C@@H](NC(=O)[C@H](Cc1ccccc1)NC(=O)[C@H](CC(=O)O)NC(=O)[C@H](CCC(N)=O)NC(=O)[C@H](C)NC(=O)[C@H](CCCNC(=N)N)NC(=O)[C@H](CCCNC(=N)N)NC(=O)[C@@H](NC(=O)[C@H](CC(=O)O)NC(=O)[C@H](CC(C)C)NC(=O)[C@H](Cc1ccc(O)cc1)NC(=O)[C@H](CCCCN)NC(=O)[C@H](CO)NC(=O)[C@H](Cc1ccc(O)cc1)NC(=O)[C@H](CC(=O)O)NC(=O)[C@H](CO)NC(=O)[C@@H](NC(=O)[C@H](Cc1ccccc1)NC(=O)[C@@H](NC(=O)CNC(=O)[C@H](Cc1c[nH]cn1)NC(=O)C(C)(C)NC(=O)CCc1c[nH]cn1)[C@@H](C)O)[C@@H](C)O)C(C)C)C(C)C)C(=O)N[C@@H](Cc1c[nH]c2ccccc12)C(=O)N[C@@H](CC(C)C)C(=O)N[C@@H](CC(C)C)C(=O)N[C@@H](CO)C(=O)N[C@H](C(=O)O)[C@@H](C)O)C(=O)O)C(=O)O)C(=O)O)C(=O)O [Example 10, N^ϵ24-[(4S)-4-[[(4S)-4-[[(4S)-4-[[(4S)-4-acetamido-4-carboxybutanoyl]amino]-4-carboxybutanoyl]amino]-4-carboxybutanoyl]amino]-4-carboxybutanoyl]-[Imp1, Aib2, His3, Val16, Lys24, Leu27, Ser28]-Glucagon] (Desaminohistidyl-[Aib]HGTFTSDYSKYLDVRRAQDFVK([γGlu-γGlu-γGlu-γGlu-Ac])WLLST-OH) | 500
